Data from US9499811B2, “Ligation enhancement” (New England Biolabs, Inc., priority 2011, dated 2016).
“Also recorded” adds a separate entry of the source.

Legend:
Type in all cases: biochemical
Design in all cases: purchased NEB (New England Biolabs), Ipswich, Mass. #M0202
T4 DNA ligase [1] = target: T1, T4 DNA ligase (Enterobacteria phage T4, UniProt P00970); experiment: Cloning of a 500 bp amplicon made by Taq DNA polymerase into a T-tailed vector (ligation test system a); conditions: enhancer at 12%; no addition = 1-fold; single-base overhangs
T1 sequence (P00970 1-487): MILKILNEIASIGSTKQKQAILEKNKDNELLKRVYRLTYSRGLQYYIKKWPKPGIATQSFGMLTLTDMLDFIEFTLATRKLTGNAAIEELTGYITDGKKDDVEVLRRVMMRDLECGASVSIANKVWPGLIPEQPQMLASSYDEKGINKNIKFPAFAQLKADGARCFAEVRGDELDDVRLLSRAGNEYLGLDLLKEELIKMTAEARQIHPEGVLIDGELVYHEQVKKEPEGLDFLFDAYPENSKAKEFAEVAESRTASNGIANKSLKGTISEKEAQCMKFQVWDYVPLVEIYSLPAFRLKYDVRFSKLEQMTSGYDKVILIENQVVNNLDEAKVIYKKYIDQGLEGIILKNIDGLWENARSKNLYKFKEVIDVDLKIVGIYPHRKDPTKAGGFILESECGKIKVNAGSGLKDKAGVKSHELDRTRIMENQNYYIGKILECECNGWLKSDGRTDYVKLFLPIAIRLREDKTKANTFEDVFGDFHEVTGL
Method: All were tested side-by-side using two ligation test systems which were: (a) cloning of a 500 bp amplicon made by Taq DNA polymerase into a T-tailed vector; and (b) recircularization of an AhdI-linearized plasmid. Both ligation test systems used DNA with single-base overhangs.
(§1) The reaction mixtures contained DNA at 50-100 ng and 1,2-PrD at different concentrations. 1 μl of regular concentration (NEB, Ipswich, Mass., #M0202; 400 units) or 1 μl of high concentration T4 DNA ligase (NEB, Ipswich, Mass., #M0202; 2000 units) was then added to a final volume of 21 μl in 1×T4 DNA Ligase Buffer (NEB, Ipwich, Mass., #B0202) or 1× Quick Ligase™ Buffer (NEB, Ipswich, Mass., #B2200).
A standard assay uses 100 ng DNA, 1 μl of T4 DNA ligase, 21 μl 1×T4 DNA ligase buffer and varying amounts of enhancer.
(§2) Ligation reactions were incubated for 10 min at room temperature (25° C.) unless otherwise stated, then placed on ice for 2 min. In some experiments the ligase was heat-killed by incubation at 65° C. for 20 min. The ligation reactions were analyzed by 1% agarose gel electrophoresis to identify DNA species and determine the efficiency of […].
(§3) A volume of 2 μl from each ligation reaction was incubated with 50 μl of chemically competent (NEB, Ipswich, Mass., #C2987I) or electrocompetent (NEB, Ipswich, Mass., #C2989K) DH5 alpha E. coli cells.
(§4) For chemically competent cell transformations, the cell-DNA mixture was incubated on ice for 30 min, heat-shocked at 42° C. for 30 sec, then returned to ice for 5 min. A volume of 950 μl SOC medium (2% vegetable peptone or Tryptone, 0.5% yeast extract, 10 mM NaCl, 2.5 mM KCl, 10 mM MgCl2, 10 mM MgSO4 and 20 mM glucose) was added to the cell-DNA mixture, followed by a one hr 37° C. outgrowth period with agitation. A volume of 25-50 μl of appropriately diluted cells in SOC was spread onto Rich Agar plates (composition per liter: 10 g soy peptone, 5 g yeast extract, 10 g NaCl, 1 g MgCl2-6H2O, 1 g dextrose, 15 grams agar) supplemented with 100 μg/ml ampicillin. Plates were inverted and incubated for 16 hrs at 37° C., followed by quantification of total colony numbers.

T4 DNA ligase [2] = target: T1, T4 DNA ligase; experiment: Cloning of inserts with single-base 3'A overhangs into Qiagen cloning vector, ligation and subsequent transformation; conditions: 6% 1,2-PrD
Method: This test used a commercially available cloning vector from Qiagen, Valencia, Calif. (#231124) specifically designed to clone DNA fragments with single-base 3′A overhangs.
as §1, §2, §3, §4
For electrocompetent cell transformation protocols, the cell-DNA mixture was subjected to electroporation, immediately followed by the addition of 950 μl of pre-warmed 37° C. SOC medium, followed by a one hour 37° C. outgrowth period with agitation. Dilution, plating, incubation and colony quantification were performed as described in Example 1A above.

T4 DNA ligase [3] = target: T1, T4 DNA ligase; experiment: Transformants after ligation of AhdI-linearized pUC19 in T4 DNA ligase buffer vs Quick Ligase buffer containing PEG 6000; conditions: 1,2-PrD in regular ligase buffer, chemically competent cells
Method: The Y-axis is transformants per 10 pg DNA (transformations w/chemically competent cells.) The X-axis is regular ligase buffer (RLB) with the percentage of added 1,2-PrD given in parentheses. The quick ligase buffer (QLB) has PEG in it to enhance ligation.
as §1
For chemically competent cell transformations, the cell-DNA mixture was incubated on ice for 30 min, heat-shocked at 42° C. for 30 sec, then returned to ice for 5 min. […] Plates were inverted and incubated for 16 hrs at 37° C., followed by quantification of total colony numbers.
Ligations were performed in both buffers using 50 ng of AhdI-linearized pUC19 double-stranded DNA (containing single-base overhangs) following the conditions described in Example 1. A total of 10 pg DNA (40 μl of a 1:20 dilution of the SOC outgrowth) was used per plate and transformants were counted after 16 hrs at 37° C.

[4] = insert 68mer cassette featuring No 5' PO4, 3' A overhang
[5] = insert 513 pb human genomic amplicon using Taq DNA polymerase

## CC(O)CO (stereo not shown) [1,2-PrD, 1,2-propanediol]
T4 DNA ligase [1]
  Cloning Enhancement: 14-fold
T4 DNA ligase [2]; [4]
  Cloning Enhancement (chemical transformation): 14-fold
  Cloning Enhancement (electroporation): 2-fold
T4 DNA ligase [2]; [5]
  Cloning Enhancement (chemical transformation): At least 72-fold
  Cloning Enhancement (electroporation): 11-fold
T4 DNA ligase [2]; insert 513 pb human genomic amplicon, 0 colonies without enhancer
  Colonies (chemical transformation): 72 colonies)
T4 DNA ligase [3]
  Transformants per 10 pg DNA compared with PEG-containing Quick Ligase buffer: enhanced DNA ligation at least as much as PEG containing Quick Ligase; also recorded: achieved the level of transformation expected or greater than in PEG-containing (quick ligase) buffers
